From PMC5516944 (Structure (London, England : 1993), 2017)

T1: hATL3 (Homo sapiens, UniProt Q6DD88)
T1 sequence (Q6DD88 1-442): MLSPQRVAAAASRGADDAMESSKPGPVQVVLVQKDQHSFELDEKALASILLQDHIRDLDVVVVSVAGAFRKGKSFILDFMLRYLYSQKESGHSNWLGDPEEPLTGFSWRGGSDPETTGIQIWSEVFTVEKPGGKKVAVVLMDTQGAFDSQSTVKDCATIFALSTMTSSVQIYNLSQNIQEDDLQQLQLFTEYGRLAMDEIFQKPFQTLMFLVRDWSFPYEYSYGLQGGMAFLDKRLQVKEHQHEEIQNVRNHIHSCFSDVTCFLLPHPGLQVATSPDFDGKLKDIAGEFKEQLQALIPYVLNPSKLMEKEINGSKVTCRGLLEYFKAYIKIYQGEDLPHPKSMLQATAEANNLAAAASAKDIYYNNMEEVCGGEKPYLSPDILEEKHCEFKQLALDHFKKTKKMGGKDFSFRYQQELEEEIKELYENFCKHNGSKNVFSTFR

T2: hATL1 (Homo sapiens, UniProt Q8WXF7)
T2 sequence (Q8WXF7 1-446): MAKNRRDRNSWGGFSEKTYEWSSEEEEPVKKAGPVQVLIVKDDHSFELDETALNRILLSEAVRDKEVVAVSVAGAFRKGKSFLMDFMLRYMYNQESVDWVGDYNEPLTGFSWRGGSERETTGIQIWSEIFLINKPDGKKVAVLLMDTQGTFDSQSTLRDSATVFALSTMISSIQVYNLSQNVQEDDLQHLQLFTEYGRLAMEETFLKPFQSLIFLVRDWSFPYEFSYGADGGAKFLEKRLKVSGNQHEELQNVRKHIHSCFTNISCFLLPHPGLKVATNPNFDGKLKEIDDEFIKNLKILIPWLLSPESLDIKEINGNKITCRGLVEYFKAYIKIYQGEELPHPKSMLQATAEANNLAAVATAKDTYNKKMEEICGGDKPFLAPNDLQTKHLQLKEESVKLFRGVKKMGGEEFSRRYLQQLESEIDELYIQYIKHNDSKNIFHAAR


Key:
[1] = target: T1, hATL3; assay: SEC-MALS, nucleotide-induced dimerisation; assay type: binding; settings: 1 mM nucleotide; 40 μM protein; pH 7.5; 4 mM MgCl2
[2] = target: T2, hATL1; assay: SEC-MALS, nucleotide-induced dimerisation; assay type: binding; settings: 1 mM nucleotide; 40 μM protein; pH 7.5; 4 mM MgCl2
[3] = target: the molecule itself; assay: SEC-MALS

Molecule	SEC-MALS, nucleotide-induced dimerisation [1]	SEC-MALS, nucleotide-induced dimerisation [2]	stoichiometry N [3]
Nc1nc2c(ncn2[C@@H]2O[C@H](COP(=O)(O)OP(=O)(O)NP(=O)(O)O)[C@@H](O)[C@H]2O)c(=O)[nH]1 [GppNHp]	dimeric ATLs are found when bound to GppNHp and GDP•AlFx	dimeric ATLs are found when bound to GppNHp and GDP•AlFx	
human atlastin 3 (hATL3) catalytic core fragment, G and middle domains (1–442) (domain or fragment, UniProt Q6DD88 1-442, looked up) MLSPQRVAAAASRGADDAMESSKPGPVQVVLVQKDQHSFELDEKALASILLQDHIRDLDVVVVSVAGAFRKGKSFILDFMLRYLYSQKESGHSNWLGDPEEPLTGFSWRGGSDPETTGIQIWSEVFTVEKPGGKKVAVVLMDTQGAFDSQSTVKDCATIFALSTMTSSVQIYNLSQNIQEDDLQQLQLFTEYGRLAMDEIFQKPFQTLMFLVRDWSFPYEYSYGLQGGMAFLDKRLQVKEHQHEEIQNVRNHIHSCFSDVTCFLLPHPGLQVATSPDFDGKLKDIAGEFKEQLQALIPYVLNPSKLMEKEINGSKVTCRGLLEYFKAYIKIYQGEDLPHPKSMLQATAEANNLAAAASAKDIYYNNMEEVCGGEKPYLSPDILEEKHCEFKQLALDHFKKTKKMGGKDFSFRYQQELEEEIKELYENFCKHNGSKNVFSTFR			2
human atlastin 1 (hATL1) catalytic core fragment, G and middle domains (1–446) (domain or fragment, UniProt Q8WXF7 1-446, looked up) MAKNRRDRNSWGGFSEKTYEWSSEEEEPVKKAGPVQVLIVKDDHSFELDETALNRILLSEAVRDKEVVAVSVAGAFRKGKSFLMDFMLRYMYNQESVDWVGDYNEPLTGFSWRGGSERETTGIQIWSEIFLINKPDGKKVAVLLMDTQGTFDSQSTLRDSATVFALSTMISSIQVYNLSQNVQEDDLQHLQLFTEYGRLAMEETFLKPFQSLIFLVRDWSFPYEFSYGADGGAKFLEKRLKVSGNQHEELQNVRKHIHSCFTNISCFLLPHPGLKVATNPNFDGKLKEIDDEFIKNLKILIPWLLSPESLDIKEINGNKITCRGLVEYFKAYIKIYQGEELPHPKSMLQATAEANNLAAVATAKDTYNKKMEEICGGDKPFLAPNDLQTKHLQLKEESVKLFRGVKKMGGEEFSRRYLQQLESEIDELYIQYIKHNDSKNIFHAAR			2
